Test results taken from ChEMBL document CHEMBL4602617, “Discovery and optimization of heteroaryl piperazines as potent and selective PI3Kδ inhibitors” (Bioorg Med Chem Lett, 2020).

Legend:
[1] = Distribution coefficient, logD of compound by HPLC analysis; assay type: physicochemical; details: octanol/water
[2] = Protein binding in rat plasma at 0.5 mg/kg, iv or 1 mg/kg, po; assay type: ADME, organism-based; details: read-out: PPB (converted)
[3] = Unbound clearance in dog at 0.5 mg/kg, iv or 1 mg/kg, po; assay type: ADME, organism-based, Canis lupus familiaris; details: in vivo
[4] = biological target: Fibroblast growth factor receptor 2 (Homo sapiens, UniProt P21802); experiment: Inhibition of recombinant His-tagged human FGFR2 (403 to 822 residues) cytoplasmic domain expressed in baculovirus expression system using Tyr 04 peptide as substrate after 1 hr in presence of ATP by Z'-LYTE assay
[5] = biological target: Dual specificity tyrosine-phosphorylation-regulated kinase 4 (Homo sapiens, UniProt Q9NR20); experiment: Inhibition of recombinant full length human GST-tagged DYRK4 expressed in baculovirus expression system using serine/threonine-9 peptide as substrate incubated for 60 mins in presence of ATP by Z'-LYTE assay
[6] = biological target: Myosin light chain kinase 2, skeletal/cardiac muscle (Homo sapiens, UniProt Q9H1R3); experiment: Inhibition of recombinant full length human GST-tagged MYLK2 expressed in baculovirus expression system using […] peptide as substrate incubated for 60 mins in presence of ATP by Z'-LYTE assay
Chain of Myosin light chain kinase 2, skeletal/cardiac muscle (Q9H1R3 whole entry): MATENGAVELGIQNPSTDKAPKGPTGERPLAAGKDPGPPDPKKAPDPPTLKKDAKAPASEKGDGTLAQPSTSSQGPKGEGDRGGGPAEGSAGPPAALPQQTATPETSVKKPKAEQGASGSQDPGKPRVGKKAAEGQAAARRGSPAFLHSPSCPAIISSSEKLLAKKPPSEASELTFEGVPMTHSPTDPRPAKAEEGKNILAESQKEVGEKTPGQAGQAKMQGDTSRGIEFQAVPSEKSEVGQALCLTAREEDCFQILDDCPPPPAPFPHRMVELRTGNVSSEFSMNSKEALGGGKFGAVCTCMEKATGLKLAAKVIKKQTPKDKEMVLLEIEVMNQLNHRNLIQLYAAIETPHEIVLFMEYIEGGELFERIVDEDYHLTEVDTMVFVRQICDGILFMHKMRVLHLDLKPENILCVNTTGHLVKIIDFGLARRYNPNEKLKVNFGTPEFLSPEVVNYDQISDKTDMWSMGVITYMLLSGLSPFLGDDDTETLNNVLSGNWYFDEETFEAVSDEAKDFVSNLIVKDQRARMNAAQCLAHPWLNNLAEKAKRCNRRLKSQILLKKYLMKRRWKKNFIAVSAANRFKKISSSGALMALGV

[7] = biological target: Muscarinic acetylcholine receptor M2 (Homo sapiens) (UniProt P08172); experiment: Displacement of [3H]N-Methylscopolamine from full length human recombinant Muscarinic M2 receptor expressed in CHOK1 cells at 10 uM measured after 120 mins by radiometric scintillation analysis relative to control; assay type: cell-based; details: CHO-K1
[8] = biological target: Platelet-derived growth factor receptor beta (Homo sapiens, UniProt P09619); experiment: Inhibition of recombinant human His-tagged PDGFRbeta cytoplasmic domain expressed in baculovirus expression system using tyrosine-4 peptide as substrate incubated for 60 mins in presence of ATP by Z'-LYTE assay
Chain of Platelet-derived growth factor receptor beta (P09619 whole entry, the tested form may be a part): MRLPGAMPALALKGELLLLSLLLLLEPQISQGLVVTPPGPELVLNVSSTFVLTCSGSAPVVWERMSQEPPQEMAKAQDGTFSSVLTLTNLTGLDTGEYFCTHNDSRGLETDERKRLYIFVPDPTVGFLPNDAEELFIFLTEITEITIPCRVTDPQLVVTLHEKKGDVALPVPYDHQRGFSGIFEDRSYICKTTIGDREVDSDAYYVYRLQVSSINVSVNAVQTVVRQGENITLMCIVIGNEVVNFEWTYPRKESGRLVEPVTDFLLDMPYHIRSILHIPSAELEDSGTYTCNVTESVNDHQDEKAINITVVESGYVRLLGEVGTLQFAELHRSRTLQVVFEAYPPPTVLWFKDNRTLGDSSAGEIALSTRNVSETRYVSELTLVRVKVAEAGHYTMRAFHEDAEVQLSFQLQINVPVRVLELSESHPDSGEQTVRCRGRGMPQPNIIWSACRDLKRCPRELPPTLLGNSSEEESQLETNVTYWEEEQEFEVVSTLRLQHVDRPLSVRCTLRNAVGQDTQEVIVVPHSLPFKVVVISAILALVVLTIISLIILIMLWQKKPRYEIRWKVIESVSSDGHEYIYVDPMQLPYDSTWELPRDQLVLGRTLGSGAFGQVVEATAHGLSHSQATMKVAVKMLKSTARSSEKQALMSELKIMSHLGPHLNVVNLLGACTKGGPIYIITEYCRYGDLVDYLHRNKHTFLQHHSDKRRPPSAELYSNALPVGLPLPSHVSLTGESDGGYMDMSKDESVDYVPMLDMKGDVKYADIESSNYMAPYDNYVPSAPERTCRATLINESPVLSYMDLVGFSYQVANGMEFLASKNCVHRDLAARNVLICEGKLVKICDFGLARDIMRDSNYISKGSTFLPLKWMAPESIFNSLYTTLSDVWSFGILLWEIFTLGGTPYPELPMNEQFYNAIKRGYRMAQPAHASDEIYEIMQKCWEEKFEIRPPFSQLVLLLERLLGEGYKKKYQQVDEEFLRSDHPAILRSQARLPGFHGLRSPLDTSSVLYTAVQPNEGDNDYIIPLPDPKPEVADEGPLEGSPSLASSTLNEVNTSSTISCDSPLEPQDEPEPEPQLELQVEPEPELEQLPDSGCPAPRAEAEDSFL

[9] = biological target: cGMP-dependent protein kinase 2 (Homo sapiens, UniProt Q13237); experiment: Inhibition of recombinant full length GST-tagged human PKG2 expressed in baculovirus expression system using Ser/Thr 01 as substrate after 1 hr in presence of ATP by Z'-LYTE assay
[10] = biological target: Mitogen-activated protein kinase 14 (Homo sapiens, UniProt Q16539); experiment: Inhibition of recombinant full length GST-tagged human MAPK14 expressed in Escherichia coli using Ser/Thr 04 as substrate after 1 hr in presence of ATP by Z'LYTE assay
[11] = biological target: Serine/threonine-protein kinase 4 (Homo sapiens, UniProt Q13043); experiment: Inhibition of recombinant full length human GST-tagged MST1 expressed in baculovirus expression system using serine/threonine-7 peptide as substrate incubated for 60 mins in presence of ATP by Z'-LYTE assay
[12] = biological target: Dual specificity tyrosine-phosphorylation-regulated kinase 3 (Homo sapiens, UniProt O43781); experiment: Inhibition of recombinant full length human GST-tagged DYRK3 expressed in baculovirus expression system using serine/threonine-9 peptide as substrate incubated for 60 mins in presence of ATP by Z'-LYTE assay
Chain of Dual specificity tyrosine-phosphorylation-regulated kinase 3 (O43781 whole entry, canonical isoform): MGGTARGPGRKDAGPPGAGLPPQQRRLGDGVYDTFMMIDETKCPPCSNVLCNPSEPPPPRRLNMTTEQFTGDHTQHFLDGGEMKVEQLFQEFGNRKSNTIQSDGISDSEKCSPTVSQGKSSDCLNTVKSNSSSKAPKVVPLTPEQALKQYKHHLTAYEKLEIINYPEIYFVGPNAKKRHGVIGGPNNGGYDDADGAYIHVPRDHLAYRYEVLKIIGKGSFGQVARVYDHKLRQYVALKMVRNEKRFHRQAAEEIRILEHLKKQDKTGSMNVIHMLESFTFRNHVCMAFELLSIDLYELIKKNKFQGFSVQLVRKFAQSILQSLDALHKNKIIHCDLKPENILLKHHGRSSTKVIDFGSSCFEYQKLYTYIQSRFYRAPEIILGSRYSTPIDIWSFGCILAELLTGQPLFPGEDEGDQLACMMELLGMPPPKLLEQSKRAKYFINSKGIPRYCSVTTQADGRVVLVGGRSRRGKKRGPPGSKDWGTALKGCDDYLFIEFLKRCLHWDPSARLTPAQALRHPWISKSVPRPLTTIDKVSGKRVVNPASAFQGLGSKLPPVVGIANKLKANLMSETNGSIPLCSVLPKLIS

[13] = biological target: T1, Phosphatidylinositol 4,5-bisphosphate 3-kinase catalytic subunit delta isoform (Homo sapiens, UniProt O00329); experiment: Inhibition of PI3K delta (unknown origin) by Adapta assay
T1 sequence (O00329 whole entry): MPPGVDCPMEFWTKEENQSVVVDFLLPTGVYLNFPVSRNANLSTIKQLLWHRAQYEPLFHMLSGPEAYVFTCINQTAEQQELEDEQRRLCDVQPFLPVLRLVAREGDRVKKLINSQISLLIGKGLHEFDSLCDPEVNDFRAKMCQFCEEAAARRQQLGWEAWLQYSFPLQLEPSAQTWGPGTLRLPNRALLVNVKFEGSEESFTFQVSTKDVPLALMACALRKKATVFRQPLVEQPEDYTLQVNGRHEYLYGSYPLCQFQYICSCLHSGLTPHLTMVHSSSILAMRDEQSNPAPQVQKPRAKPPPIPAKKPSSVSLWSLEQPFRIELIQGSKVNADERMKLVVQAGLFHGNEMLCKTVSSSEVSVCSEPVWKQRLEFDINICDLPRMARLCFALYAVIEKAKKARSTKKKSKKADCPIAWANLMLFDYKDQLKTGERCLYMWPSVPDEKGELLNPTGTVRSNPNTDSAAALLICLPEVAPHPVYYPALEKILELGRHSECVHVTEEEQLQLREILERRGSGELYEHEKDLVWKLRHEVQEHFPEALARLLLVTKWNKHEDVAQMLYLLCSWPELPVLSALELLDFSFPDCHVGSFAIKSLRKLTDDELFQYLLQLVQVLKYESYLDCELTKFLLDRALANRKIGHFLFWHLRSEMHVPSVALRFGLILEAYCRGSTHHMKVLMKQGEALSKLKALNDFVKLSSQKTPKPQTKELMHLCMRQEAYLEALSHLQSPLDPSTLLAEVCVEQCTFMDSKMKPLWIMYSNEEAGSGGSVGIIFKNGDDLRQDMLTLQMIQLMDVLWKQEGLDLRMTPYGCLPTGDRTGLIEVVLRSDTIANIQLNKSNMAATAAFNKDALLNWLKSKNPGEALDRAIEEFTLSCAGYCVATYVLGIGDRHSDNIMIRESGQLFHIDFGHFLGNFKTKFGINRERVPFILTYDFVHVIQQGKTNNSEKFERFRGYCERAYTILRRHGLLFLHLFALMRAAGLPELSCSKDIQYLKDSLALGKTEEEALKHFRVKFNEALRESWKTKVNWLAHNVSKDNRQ

[14] = biological target: Proto-oncogene tyrosine-protein kinase receptor Ret (Homo sapiens, UniProt P07949, Y791F); experiment: Inhibition of recombinant human GST-tagged RET Y791F mutant cytoplasmic domain expressed in baculovirus expression system using tyr02 peptide as substrate incubated for 60 mins in presence of ATP by Z'-LYTE assay
Chain of Proto-oncogene tyrosine-protein kinase receptor Ret (P07949 29-1114 Y791F limits assumed): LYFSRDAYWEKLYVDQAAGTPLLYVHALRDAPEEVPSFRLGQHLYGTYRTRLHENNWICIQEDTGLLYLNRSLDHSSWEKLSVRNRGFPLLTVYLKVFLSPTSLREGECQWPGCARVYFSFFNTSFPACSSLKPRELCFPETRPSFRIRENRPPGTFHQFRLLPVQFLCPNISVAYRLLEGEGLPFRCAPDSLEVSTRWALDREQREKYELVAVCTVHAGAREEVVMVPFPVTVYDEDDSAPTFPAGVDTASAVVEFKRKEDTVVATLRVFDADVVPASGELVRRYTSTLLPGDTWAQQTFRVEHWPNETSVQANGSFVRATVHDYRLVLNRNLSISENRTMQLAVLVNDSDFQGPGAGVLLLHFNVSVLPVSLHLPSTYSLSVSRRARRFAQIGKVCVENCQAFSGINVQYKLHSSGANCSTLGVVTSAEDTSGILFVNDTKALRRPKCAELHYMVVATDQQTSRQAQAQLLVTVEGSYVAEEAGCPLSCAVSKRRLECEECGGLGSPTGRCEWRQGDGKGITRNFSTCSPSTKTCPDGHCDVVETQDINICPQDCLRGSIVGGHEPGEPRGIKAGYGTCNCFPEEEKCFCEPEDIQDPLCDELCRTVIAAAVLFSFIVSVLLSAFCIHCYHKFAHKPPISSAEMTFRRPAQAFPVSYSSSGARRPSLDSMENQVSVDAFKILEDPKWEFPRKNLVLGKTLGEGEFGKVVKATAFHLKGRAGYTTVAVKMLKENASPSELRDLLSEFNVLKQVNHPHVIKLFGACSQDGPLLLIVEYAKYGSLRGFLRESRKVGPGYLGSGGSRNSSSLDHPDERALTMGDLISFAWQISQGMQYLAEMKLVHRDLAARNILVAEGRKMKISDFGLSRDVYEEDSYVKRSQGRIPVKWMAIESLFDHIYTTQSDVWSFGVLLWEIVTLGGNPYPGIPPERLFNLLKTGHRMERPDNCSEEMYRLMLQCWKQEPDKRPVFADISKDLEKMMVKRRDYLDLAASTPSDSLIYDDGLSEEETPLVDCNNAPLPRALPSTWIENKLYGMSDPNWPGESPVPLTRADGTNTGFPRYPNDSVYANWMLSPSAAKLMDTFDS

[15] = biological target: Protein kinase C theta type (Homo sapiens, UniProt Q04759); experiment: Inhibition of recombinant full length human His-tagged PKCtheta expressed in baculovirus expression system using serine/threonine-7 peptide as substrate incubated for 60 mins in presence of ATP by Z'-LYTE assay
[16] = biological target: Serine/threonine-protein kinase D1 (Homo sapiens, UniProt Q15139); experiment: Inhibition of recombinant full length human GST-tagged PKCmu expressed in baculovirus expression system using serine/threonine-17 peptide as substrate incubated for 60 mins in presence of ATP by Z'-LYTE assay
MAO-A = MAO-A (Homo sapiens, UniProt P21397); experiment: Inhibition of recombinant full-length human MAO-A expressed in insect cells at 10 uM using kynuramine as substrate after 60 mins by spectrophotometric analysis relative to control; details: probe kynuramine
Chain of MAO-A (P21397 whole entry): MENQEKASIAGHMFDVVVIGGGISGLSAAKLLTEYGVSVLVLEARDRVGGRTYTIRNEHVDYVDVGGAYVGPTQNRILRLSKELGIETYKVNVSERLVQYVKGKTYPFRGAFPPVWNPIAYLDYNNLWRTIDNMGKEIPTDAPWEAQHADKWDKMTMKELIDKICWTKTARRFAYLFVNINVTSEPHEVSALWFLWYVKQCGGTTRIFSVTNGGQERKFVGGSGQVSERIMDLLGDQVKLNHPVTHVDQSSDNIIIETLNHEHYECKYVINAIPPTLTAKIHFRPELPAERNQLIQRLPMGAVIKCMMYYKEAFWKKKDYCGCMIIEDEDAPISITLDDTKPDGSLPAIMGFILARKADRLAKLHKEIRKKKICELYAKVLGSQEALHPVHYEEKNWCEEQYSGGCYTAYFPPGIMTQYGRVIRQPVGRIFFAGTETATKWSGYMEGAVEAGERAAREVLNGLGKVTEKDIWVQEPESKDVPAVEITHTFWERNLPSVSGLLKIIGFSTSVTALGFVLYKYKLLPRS

[17] = biological target: Histamine H1 receptor (Homo sapiens) (UniProt P35367); experiment: Displacement of [3H]pyrilamine from full length human recombinant histamine H1 receptor expressed in CHO-K1 cells at 10 uM measured after 180 mins by radiometric scintillation analysis relative to control; assay type: cell-based
[18] = biological target: Phosphatidylinositol 3-kinase catalytic subunit type 3 (Homo sapiens, UniProt Q8NEB9); experiment: Inhibition of recombinant full length human GST-tagged PIK3C3 expressed in baculovirus expression system using PI lipid as substrate incubated for 60 mins in presence of ATP by Adapta assay
Chain of Phosphatidylinositol 3-kinase catalytic subunit type 3 (Q8NEB9 whole entry): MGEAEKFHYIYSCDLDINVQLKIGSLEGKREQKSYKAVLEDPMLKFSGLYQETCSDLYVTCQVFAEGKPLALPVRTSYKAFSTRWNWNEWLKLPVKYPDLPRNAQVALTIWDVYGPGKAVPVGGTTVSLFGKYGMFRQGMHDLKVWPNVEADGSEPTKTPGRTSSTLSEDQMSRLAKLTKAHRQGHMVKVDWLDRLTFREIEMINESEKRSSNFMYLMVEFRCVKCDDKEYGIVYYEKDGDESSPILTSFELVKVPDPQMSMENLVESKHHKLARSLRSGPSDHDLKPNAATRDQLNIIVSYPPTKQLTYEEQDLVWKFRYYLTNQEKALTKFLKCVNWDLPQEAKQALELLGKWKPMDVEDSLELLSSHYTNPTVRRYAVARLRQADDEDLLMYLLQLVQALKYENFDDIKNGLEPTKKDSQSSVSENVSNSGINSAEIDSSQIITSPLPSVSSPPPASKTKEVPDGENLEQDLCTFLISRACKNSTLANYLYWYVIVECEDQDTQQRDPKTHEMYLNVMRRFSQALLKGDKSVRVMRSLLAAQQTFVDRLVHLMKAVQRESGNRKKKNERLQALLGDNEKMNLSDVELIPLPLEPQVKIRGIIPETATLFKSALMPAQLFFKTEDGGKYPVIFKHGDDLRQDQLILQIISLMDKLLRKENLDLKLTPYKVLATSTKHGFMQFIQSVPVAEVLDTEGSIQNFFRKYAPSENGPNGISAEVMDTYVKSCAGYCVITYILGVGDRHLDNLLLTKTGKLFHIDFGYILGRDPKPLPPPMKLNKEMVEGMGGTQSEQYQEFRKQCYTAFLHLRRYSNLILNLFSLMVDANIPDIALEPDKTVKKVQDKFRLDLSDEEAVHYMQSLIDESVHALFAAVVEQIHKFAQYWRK

`C[C@@H]1C[C@H]1C(=O)N1CCN(c2cnc(C#N)c(-c3cnn(C)c3)n2)C[C@H]1C` gave a logD [1] of 1.6, a fraction unbound [2] of 0.152 and a CL free [3] of 37 mL/min/kg. For the same molecule, the IC50 [4] was > 100 µM, the IC50 [5] was > 100 µM and the IC50 [6] was > 100 µM. The inhibition [7] was 1%, the IC50 [8] was > 100 µM and the IC50 [9] was > 100 µM. For the same molecule, the IC50 [10] was > 100 µM, the IC50 [11] was > 100 µM and the IC50 [12] was > 100 µM. For the same molecule, the IC50 [13] was < 0.01 µM, the IC50 [14] was > 100 µM and the IC50 [15] was > 100 µM. For the same molecule, the IC50 [16] was > 100 µM, the inhibition at 1 h, 10 µM (MAO-A) was 11% and the inhibition [17] was 12%. The IC50 [18] was > 100 µM.
